Results on 18 molecules are retold here after PubChem BioAssay AID256 (DTP/NCI, 2004).

In this test the test system is CD2F1 mice, L1210 leukemia ip, survival T/C. The test can be described thus: NCI In Vivo Anticancer Drug Screen. Data for tumor model L1210 Leukemia (intraperitoneal) in CD2F1 (CDF1) mice. As to conditions: higher = longer survival. Put shortly:
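Transplantable tumor in mice; compound-treated vs vehicle-treated groups. Read-out = treated/control ratio of the measured endpoint.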

The mark [1] stands for this setting: endpoint: mean survival time, dose: 50.0 mg/kg/injection, schedule: Q01DX009 (ip), vehicle: saline with Tween-80.
Where [2] appears, read: endpoint: mean survival time, dose: 100.0 mg/kg/injection, schedule: Q01DX009 (ip), vehicle: saline with Tween-80.
Where [3] appears, read: endpoint: mean survival time, dose: 100.0 mg/kg/injection, schedule: Q04DX003 (ip), vehicle: saline with Tween-80.
[4] abbreviates: endpoint: mean survival time, dose: 200.0 mg/kg/injection, schedule: Q01DX009 (ip), vehicle: saline with Tween-80.
The mark [5] stands for this setting: endpoint: mean survival time, dose: 200.0 mg/kg/injection, schedule: Q04DX003 (ip), vehicle: saline with Tween-80.
[6] abbreviates: endpoint: mean survival time, dose: 100.0 mg/kg/injection, schedule: Q01DX001 (ip), vehicle: saline with Tween-80.
The mark [7] stands for this setting: endpoint: mean survival time, dose: 400.0 mg/kg/injection, schedule: Q01DX009 (ip), vehicle: saline with Tween-80.

“And” between values parts separate entries of the source, which are not always exact repeats. Equal entries are not always repeated. Inconclusive results and toxic doses are left out.

On to `CCCCOC1CCC2(C)C(=CCC3C2CCC2(C)C(C(C)CCCC(C)C)CCC32)C1` (stereo not drawn), for which the T/C runs as follows: (endpoint: mean survival time, dose: 100.0 mg/kg/injection, schedule: Q01DX009 (sc), vehicle: steriod suspending solution) 114 % of control; (endpoint: mean survival time, dose: 100.0 mg/kg/injection, schedule: Q04DX003 (sc), vehicle: steriod suspending solution) 91 % of control; (endpoint: mean survival time, dose: 200.0 mg/kg/injection, schedule: Q01DX009 (sc), vehicle: steriod suspending solution) 102 % of control; (endpoint: mean survival time, dose: 200.0 mg/kg/injection, schedule: Q04DX003 (sc), vehicle: steriod suspending solution) 96 % of control; (endpoint: mean survival time, dose: 400.0 mg/kg/injection, schedule: Q01DX009 (sc), vehicle: steriod suspending solution) 103 % of control; (endpoint: mean survival time, dose: 400.0 mg/kg/injection, schedule: Q04DX003 (sc), vehicle: steriod suspending solution) 102 % of control.
For the molecule `Cc1cc(O)c(C)c(C)c1Cl`, the T/C under setting [1] was 102 % of control; the T/C under setting [2] was 104 % of control; the T/C under setting [3] is 94 % of control; the T/C under setting [4] is 91 % of control; the T/C under setting [5] was 98 % of control.
For `CN(C)C/C(=C\c1ccccc1)C(=O)c1ccccc1`, the T/C reads like this: (endpoint: mean survival time, dose: 12.5 mg/kg/injection, schedule: Q04DX003 (ip), vehicle: other) 98 % of control; (endpoint: mean survival time, dose: 25.0 mg/kg/injection, schedule: Q04DX003 (ip), vehicle: other) 97 % of control; (endpoint: mean survival time, dose: 50.0 mg/kg/injection, schedule: Q04DX003 (ip), vehicle: other) 101 % of control.
Regarding `O=C(NC(C(=O)NC(C(=O)O)C1CC(Cl)=NO1)C1CC(Cl)=NO1)OCC1c2ccccc2-c2ccccc21` (stereo not drawn), the T/C is 122 % of control (endpoint: mean survival time, dose: 1.6 mg/kg/injection, schedule: Q01DX009 (ip), vehicle: saline); 116 % of control (endpoint: mean survival time, dose: 3.1 mg/kg/injection, schedule: Q01DX009 (ip), vehicle: saline); 87 % of control (endpoint: mean survival time, dose: 25.0 mg/kg/injection, schedule: Q01DX009 (ip), vehicle: saline).
Take `O=[N+]([O-])O.[Zn+2].c1ccncc1`: for the setting “endpoint: mean survival time, dose: 75.0 mg/kg/injection, schedule: Q01DX001 (ip), vehicle: saline”, the T/C was 108 % of control.
In the case of `CCCCCCCCCC/C(C)=N/Nc1ccc([N+](=O)[O-])cc1[N+](=O)[O-]`, the T/C under setting [6] was 94 % of control; the T/C (endpoint: mean survival time, dose: 200.0 mg/kg/injection, schedule: Q01DX001 (ip), vehicle: saline with Tween-80) was 89 % of control; the T/C (endpoint: mean survival time, dose: 400.0 mg/kg/injection, schedule: Q01DX001 (ip), vehicle: saline with Tween-80) is 93 % of control.
Turning to `CC(NC(=O)OCc1ccccc1)C(=O)NC(CC(=O)O)C(=O)O` (stereo not drawn), the T/C (endpoint: mean survival time, dose: 100.0 mg/kg/injection, schedule: Q04DX003 (ip), vehicle: saline) is 92 % of control.
As for `COC(=O)C1CCC(N(C)S(=O)(=O)c2ccc(C)cc2)CC1` (stereo not drawn), the T/C runs as follows: (endpoint: mean survival time, dose: 100.0 mg/kg/injection, schedule: Q01DX009 (ip), vehicle: Klucel (hydroxypropylcellulose) (HPC)) 100 % of control; (endpoint: mean survival time, dose: 200.0 mg/kg/injection, schedule: Q01DX009 (ip), vehicle: Klucel (hydroxypropylcellulose) (HPC)) 96 % of control; (endpoint: mean survival time, dose: 400.0 mg/kg/injection, schedule: Q01DX009 (ip), vehicle: Klucel (hydroxypropylcellulose) (HPC)) 92 % of control.
On to `O=[N+]([O-])c1cccc(Cc2nncc3ccccc23)c1`, for which the T/C under setting [2] is 96 % of control, the T/C under setting [4] is 94 % of control and the T/C under setting [7] is 94 % of control.
For `NC(=S)N/N=C/c1ccc2c(c1)OCO2`, the T/C reads like this: under setting [1], 98 % of control; under setting [2], 110 % of control; under setting [4], 98 % of control.
As for `CC(=O)Nc1ccc2c(c1)Cc1ccccc1-2`, the T/C by setting is: under setting [2], 101 % of control; under setting [3], 87 % of control; under setting [4], 95 % of control; under setting [5], 101 % of control; under setting [7], 101 % of control; (endpoint: mean survival time, dose: 400.0 mg/kg/injection, schedule: Q04DX003 (ip), vehicle: saline with Tween-80) 90 % of control.
Regarding `CN(C)c1ccc2nc(CC(O)(C(F)(F)F)C(F)(F)F)ccc2c1`, the T/C is, setting by setting: (endpoint: mean survival time, dose: 25.0 mg/kg/injection, schedule: Q01DX009 (ip), vehicle: saline with Tween-80) 95 % of control; under setting [1], 95 % of control; under setting [2], 93 % of control; under setting [3], 89 % of control.
Consider `O=c1[nH]c(=S)ccn1C1OC(COP(=O)(O)O)C(O)C1O` (stereo not drawn), for which the T/C is 98 % of control (endpoint: mean survival time, dose: 12.5 mg/kg/injection, schedule: Q01DX005 (ip), vehicle: water); 103 % of control (endpoint: mean survival time, dose: 25.0 mg/kg/injection, schedule: Q01DX005 (ip), vehicle: water); 103 % of control (endpoint: mean survival time, dose: 50.0 mg/kg/injection, schedule: Q01DX005 (ip), vehicle: water); 103 % of control (endpoint: mean survival time, dose: 100.0 mg/kg/injection, schedule: Q01DX005 (ip), vehicle: water); 103 % of control (endpoint: mean survival time, dose: 200.0 mg/kg/injection, schedule: Q01DX005 (ip), vehicle: water).
Regarding `CC(Cc1ccccc1)NC=O` (stereo not drawn), the T/C by setting is: under setting [1], 97 % of control; under setting [2], 97 % of control.
With `CCOC(=O)c1ccc(-c2ccc(C(=O)OCC)o2)o1`, the T/C runs as follows: (endpoint: mean survival time, dose: 50.0 mg/kg/injection, schedule: Q04DX002 (ip), vehicle: saline) 101 % of control; (endpoint: mean survival time, dose: 100.0 mg/kg/injection, schedule: Q04DX002 (ip), vehicle: saline) 93 % of control; (endpoint: mean survival time, dose: 200.0 mg/kg/injection, schedule: Q04DX002 (ip), vehicle: saline) 97 % of control.
Turning to `CSc1ccccc1N=Cc1cc(Cl)ccc1O`, the T/C was 96 % of control (endpoint: mean survival time, dose: 25.0 mg/kg/injection, schedule: Q01DX001 (ip), vehicle: saline with Tween-80); 96 % of control (endpoint: mean survival time, dose: 50.0 mg/kg/injection, schedule: Q01DX001 (ip), vehicle: saline with Tween-80); 96 % of control under setting [6].
With `CCCNC1=C(C)C(=O)C2=C(C1=O)[C@H](COC(N)=O)[C@]1(OC)[C@@H]3N[C@@H]3CN21`, the T/C runs as follows: (endpoint: mean survival time, dose: 10.2 mg/kg/injection, schedule: Q01DX001 (ip), vehicle: saline) 108 % of control; (endpoint: mean survival time, dose: 15.5 mg/kg/injection, schedule: Q01DX001 (ip), vehicle: saline) 112 % of control; (endpoint: mean survival time, dose: 23.2 mg/kg/injection, schedule: Q01DX001 (ip), vehicle: saline) 120 % of control; (endpoint: median survival time, dose: 0.39 mg/kg/injection, schedule: Q01DX009 (ip), vehicle: suspension in saline) 93 % of control; (endpoint: median survival time, dose: 0.78 mg/kg/injection, schedule: Q01DX009 (ip), vehicle: saline) 112 % of control; (endpoint: median survival time, dose: 0.78 mg/kg/injection, schedule: Q01DX009 (ip), vehicle: suspension in saline) 93 % of control. Also, the T/C reads like this: (endpoint: median survival time, dose: 1.56 mg/kg/injection, schedule: Q01DX009 (ip), vehicle: saline) 117 % of control; (endpoint: median survival time, dose: 1.56 mg/kg/injection, schedule: Q01DX009 (ip), vehicle: suspension in saline) 102 % of control; (endpoint: median survival time, dose: 3.12 mg/kg/injection, schedule: Q01DX009 (ip), vehicle: suspension in saline) 102 % of control; (endpoint: median survival time, dose: 6.25 mg/kg/injection, schedule: Q01DX009 (ip), vehicle: saline) 166 % of control; (endpoint: median survival time, dose: 6.25 mg/kg/injection, schedule: Q01DX009 (ip), vehicle: suspension in saline) 104 % of control; (endpoint: median survival time, dose: 12.5 mg/kg/injection, schedule: Q01DX009 (ip), vehicle: saline) 100 % of control. The T/C (endpoint: median survival time, dose: 12.5 mg/kg/injection, schedule: Q01DX009 (ip), vehicle: suspension in saline) was 112 % of control.
Turning to `O=NNc1ccc2cccnc2n1`, the T/C reads like this: (endpoint: median survival time, dose: 12.5 mg/kg/injection, schedule: Q01DX005 (ip), vehicle: water) 153 % of control; (endpoint: median survival time, dose: 25.0 mg/kg/injection, schedule: Q01DX005 (ip), vehicle: water) 162 % of control; (endpoint: median survival time, dose: 50.0 mg/kg/injection, schedule: Q01DX005 (ip), vehicle: water) 164 % of control; (endpoint: median survival time, dose: 60.0 mg/kg/injection, schedule: Q01DX005 (ip), vehicle: water) 223 % of control; (endpoint: median survival time, dose: 100.0 mg/kg/injection, schedule: Q01DX005 (ip), vehicle: water) 175 % of control and 181 % of control; (endpoint: median survival time, dose: 166.66 mg/kg/injection, schedule: Q01DX005 (ip), vehicle: water) 105 % of control.
